From ChEMBL document CHEMBL1201862, “PubChem BioAssay data set” (2004)
Active and inactive are the calls of the source.

Legend:
[1] = biological target: T1, Rac GTPase-activating protein 1 (Homo sapiens, UniProt Q9H0H5); experiment: blockers of MgcRacGAP-driven Rac1 GTP hydrolysis – biochemical, ADP Hunter fluorescence, primary and confirmatory, confirmation (AID 624330); format: functional
T1 sequence (Q9H0H5 whole entry): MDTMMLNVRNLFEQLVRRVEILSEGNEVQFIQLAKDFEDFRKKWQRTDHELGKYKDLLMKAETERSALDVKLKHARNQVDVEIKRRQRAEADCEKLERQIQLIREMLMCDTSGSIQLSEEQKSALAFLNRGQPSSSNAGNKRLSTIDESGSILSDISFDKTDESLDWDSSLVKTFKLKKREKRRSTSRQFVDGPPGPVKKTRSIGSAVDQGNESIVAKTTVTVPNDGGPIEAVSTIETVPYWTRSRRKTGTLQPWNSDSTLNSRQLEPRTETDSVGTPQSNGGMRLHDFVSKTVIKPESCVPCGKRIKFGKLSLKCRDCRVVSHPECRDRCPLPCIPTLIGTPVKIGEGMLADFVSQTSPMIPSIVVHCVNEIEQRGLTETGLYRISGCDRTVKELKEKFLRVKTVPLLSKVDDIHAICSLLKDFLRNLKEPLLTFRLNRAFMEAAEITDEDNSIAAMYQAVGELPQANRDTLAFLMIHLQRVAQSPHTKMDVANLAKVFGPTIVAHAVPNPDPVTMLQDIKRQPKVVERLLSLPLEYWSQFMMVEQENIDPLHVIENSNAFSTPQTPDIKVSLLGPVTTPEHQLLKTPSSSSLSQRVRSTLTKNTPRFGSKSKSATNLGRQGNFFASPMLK

[2] = biological target: DNA dC->dU-editing enzyme APOBEC-3G (Homo sapiens, UniProt Q9HC16); experiment: Dose Response confirmation of small molecule APOBEC3G DNA Deaminase Inhibitors via a fluorescence-based single-stranded DNA deaminase assay. [Related pubchem assays (depositor defined):AID493012, AID493028]; format: functional
[3] = cells; format: functional, cell-based
[4] = cells; format: functional, cell-based; remark: listed apart in the source
[5] = HEK-293T cell viability reduction – luminescence, B-cell screen hits, cytotoxicity control for BCR NF-kB inhibitor project, dose response (AID 489021); format: functional, cell-based;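 also: HEK-293T cells carrying an NF-kB luciferase reporter; cells exposed to compound for about 14 hours before viability readout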
[6] = biological target: T2, Microphthalmia-associated transcription factor (Homo sapiens, UniProt O75030); experiment: reducers of TRPM1 reporter luminescence, concentration series – cell-based, SK-MEL-5, cherry-picked, set 3, MITF inhibitor project, dose response (AID 493073); format: functional;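 also: SK-MEL-5 melanoma cells with luciferase driven by the MITF target TRPM1 promoter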
T2 sequence (O75030 whole entry): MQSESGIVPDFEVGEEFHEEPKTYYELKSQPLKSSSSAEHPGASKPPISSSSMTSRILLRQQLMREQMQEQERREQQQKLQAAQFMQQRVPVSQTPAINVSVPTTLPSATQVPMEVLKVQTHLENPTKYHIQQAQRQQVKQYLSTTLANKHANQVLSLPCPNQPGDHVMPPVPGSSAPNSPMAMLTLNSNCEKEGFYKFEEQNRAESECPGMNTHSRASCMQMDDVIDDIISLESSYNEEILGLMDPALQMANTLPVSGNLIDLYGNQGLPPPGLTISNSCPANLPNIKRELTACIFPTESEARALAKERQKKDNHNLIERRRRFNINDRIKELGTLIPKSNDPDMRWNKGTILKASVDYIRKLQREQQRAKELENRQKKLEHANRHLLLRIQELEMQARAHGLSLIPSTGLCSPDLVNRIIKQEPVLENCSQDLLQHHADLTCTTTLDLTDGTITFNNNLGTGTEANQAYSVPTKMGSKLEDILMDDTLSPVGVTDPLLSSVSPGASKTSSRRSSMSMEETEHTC

[7] = biological target: Large T antigen (Simian virus 40, UniProt P03070); format: functional, Betapolyomavirus macacae;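 also: Confirmatory-stage PubChem screen for compounds that inhibit SV40 T antigen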
[8] = biological target: T3, Endoribonuclease toxin MazF (Escherichia coli K-12, UniProt P0AE70); experiment: activation of MazEF endoribonuclease cleavage – biochemical, fluorescence, single-stranded RNA substrate, uHTS hits, dose response (AID 588481); format: functional
T3 sequence (P0AE70 whole entry): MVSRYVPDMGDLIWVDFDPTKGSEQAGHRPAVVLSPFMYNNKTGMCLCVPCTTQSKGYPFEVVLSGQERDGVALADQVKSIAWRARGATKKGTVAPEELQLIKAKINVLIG

[9] = biological target: T3, Endoribonuclease toxin MazF; experiment: substrate-only fluorescence increase artefacts – biochemical, single-stranded RNase substrate, counter-screen for MazEF activator project, dose response (AID 588502); format: functional
[10] = biological target: Cytochrome P450 2D6 (Homo sapiens, UniProt P10635);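 also: CYP2D6 member of a cytochrome P450 panel assay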
[11] = blockers of bursicon-stimulated LGR2 cAMP reporter – cell-based, HEK293, CRE-luciferase reporter, cherry pick, set 2, dose response (AID 743343); format: functional;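 also: transfected cells were stimulated with diluted bursicon conditioned medium after compound addition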
[12] = biological target: Cytochrome P450 2C9 (Homo sapiens, UniProt P11712)
[13] = blockade of melanocortin 4 receptor signaling – cell-based, plate reader, cherry pick, counter-screen for LGR2 antagonist project, dose response (AID 743444); format: functional;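 also: transfected HEK 293 cells stimulated with alpha-MSH peptide; potency of inhibitors of the alpha-MSH evoked signal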
[14] = toxicity toward HepG2 liver cells – cell-based, plate reader, cherry-pick, antagonist series, cytotoxicity control, dose response (AID 743416); format: functional
[15] = biological target: T4, RNA-binding protein pos-1 (Caenorhabditis elegans, UniProt G5EF15); experiment: disruptors of C. elegans POS-1 RNA interaction – biochemical, fluorescence polarization, dose response (AID 1964);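 also: purified POS-1 fused to maltose binding protein made in E. coli; potency of compounds blocking POS-1 binding to fluorescent RNA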
T4 sequence (G5EF15 whole entry): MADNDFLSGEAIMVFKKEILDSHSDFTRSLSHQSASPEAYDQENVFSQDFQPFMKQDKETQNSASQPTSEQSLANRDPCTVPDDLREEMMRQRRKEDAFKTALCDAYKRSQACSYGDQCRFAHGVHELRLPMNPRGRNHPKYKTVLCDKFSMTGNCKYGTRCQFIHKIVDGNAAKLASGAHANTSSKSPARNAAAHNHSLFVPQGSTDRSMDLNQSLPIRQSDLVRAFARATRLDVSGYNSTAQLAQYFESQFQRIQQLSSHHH

[16] = biological target: T5, Zinc finger protein mex-5 (Caenorhabditis elegans, UniProt Q9XUB2); experiment: potency of MEX-5 RNA-binding blockers – biochemical, C. elegans, fluorescence polarization, dose response (AID 1960)
T5 sequence (Q9XUB2 whole entry): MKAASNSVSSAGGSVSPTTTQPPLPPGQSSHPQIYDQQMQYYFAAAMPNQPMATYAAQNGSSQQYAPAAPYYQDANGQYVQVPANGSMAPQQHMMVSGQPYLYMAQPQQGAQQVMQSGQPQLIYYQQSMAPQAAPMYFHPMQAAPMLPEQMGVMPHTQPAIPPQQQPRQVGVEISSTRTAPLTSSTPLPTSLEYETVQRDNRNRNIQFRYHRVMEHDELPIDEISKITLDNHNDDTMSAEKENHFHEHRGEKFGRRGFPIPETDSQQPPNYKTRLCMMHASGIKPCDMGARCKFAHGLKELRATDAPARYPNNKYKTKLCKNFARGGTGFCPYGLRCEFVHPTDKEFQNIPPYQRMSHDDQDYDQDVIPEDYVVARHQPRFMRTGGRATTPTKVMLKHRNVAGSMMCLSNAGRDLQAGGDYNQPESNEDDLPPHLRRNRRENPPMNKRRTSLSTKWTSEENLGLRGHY

DNA dC->dU-editing enzyme APOBEC-3G, sequence (Q9HC16 whole entry): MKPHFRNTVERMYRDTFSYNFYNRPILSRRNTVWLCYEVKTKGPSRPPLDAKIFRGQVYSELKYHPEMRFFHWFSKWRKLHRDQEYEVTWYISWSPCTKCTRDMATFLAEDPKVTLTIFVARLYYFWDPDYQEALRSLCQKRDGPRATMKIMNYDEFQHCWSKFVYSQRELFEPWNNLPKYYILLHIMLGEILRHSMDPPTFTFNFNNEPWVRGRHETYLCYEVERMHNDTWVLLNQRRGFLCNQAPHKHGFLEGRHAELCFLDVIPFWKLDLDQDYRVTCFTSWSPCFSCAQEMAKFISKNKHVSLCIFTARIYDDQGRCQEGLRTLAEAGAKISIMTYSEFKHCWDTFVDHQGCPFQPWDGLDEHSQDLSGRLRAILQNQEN
Large T antigen, sequence (P03070 whole entry): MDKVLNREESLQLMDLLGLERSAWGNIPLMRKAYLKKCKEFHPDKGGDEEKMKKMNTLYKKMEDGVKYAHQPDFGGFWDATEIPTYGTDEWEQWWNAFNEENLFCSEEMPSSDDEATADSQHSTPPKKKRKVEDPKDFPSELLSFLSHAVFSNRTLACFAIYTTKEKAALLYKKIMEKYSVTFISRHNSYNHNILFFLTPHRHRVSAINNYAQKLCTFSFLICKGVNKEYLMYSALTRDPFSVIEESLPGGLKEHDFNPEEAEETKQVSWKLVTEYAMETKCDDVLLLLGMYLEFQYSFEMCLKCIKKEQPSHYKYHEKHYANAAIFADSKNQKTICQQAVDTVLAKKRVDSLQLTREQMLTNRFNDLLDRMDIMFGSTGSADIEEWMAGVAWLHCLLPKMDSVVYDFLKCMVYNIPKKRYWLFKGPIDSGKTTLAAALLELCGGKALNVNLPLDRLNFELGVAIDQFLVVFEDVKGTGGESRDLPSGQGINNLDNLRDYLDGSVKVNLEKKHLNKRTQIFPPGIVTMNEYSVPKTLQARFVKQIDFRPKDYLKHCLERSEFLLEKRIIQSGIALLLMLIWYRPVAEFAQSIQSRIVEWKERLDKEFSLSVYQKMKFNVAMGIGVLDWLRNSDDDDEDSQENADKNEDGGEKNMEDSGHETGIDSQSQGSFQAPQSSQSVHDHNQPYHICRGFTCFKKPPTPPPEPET
Cytochrome P450 2D6, sequence (P10635 whole entry): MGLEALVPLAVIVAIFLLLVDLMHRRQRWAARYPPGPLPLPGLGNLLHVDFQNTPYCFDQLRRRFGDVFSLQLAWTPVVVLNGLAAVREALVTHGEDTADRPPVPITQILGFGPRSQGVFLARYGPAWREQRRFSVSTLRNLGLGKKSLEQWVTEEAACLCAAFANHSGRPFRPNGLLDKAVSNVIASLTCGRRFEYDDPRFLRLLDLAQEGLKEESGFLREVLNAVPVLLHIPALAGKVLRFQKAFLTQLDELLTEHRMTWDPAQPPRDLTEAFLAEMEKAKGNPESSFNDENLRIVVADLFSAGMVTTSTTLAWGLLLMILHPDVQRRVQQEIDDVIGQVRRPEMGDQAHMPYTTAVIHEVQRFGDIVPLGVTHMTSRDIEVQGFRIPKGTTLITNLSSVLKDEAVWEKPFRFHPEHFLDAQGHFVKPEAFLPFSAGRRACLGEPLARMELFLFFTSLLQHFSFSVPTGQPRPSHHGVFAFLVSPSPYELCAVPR
Cytochrome P450 2C9, sequence (P11712 whole entry): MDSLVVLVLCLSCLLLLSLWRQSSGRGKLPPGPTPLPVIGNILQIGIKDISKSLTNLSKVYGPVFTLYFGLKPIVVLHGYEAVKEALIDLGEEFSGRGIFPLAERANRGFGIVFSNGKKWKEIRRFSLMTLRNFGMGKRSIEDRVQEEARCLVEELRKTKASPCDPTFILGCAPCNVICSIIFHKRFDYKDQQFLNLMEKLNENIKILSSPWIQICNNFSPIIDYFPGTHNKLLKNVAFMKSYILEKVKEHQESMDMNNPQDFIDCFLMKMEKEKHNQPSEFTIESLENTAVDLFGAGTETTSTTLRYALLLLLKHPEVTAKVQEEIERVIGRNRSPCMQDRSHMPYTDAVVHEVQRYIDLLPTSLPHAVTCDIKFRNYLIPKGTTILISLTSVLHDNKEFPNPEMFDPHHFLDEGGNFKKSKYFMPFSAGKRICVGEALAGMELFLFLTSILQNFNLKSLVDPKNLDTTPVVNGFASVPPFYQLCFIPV

## Nc1ccccc1SSc1ccccc1N
[1]
  IC50: 86.1 µM (active)
[2]
  IC50: 25.8 µM (active)

## C=C(C)CNC(=O)c1ccc2nc(Cc3ccc(OC)cc3)oc2c1
[3]
  EC50: 15.1 µM (active)
[4]
  EC50: > 350 µM (not active)

## COC(=O)Cc1sc(-c2ccccn2)nc1-c1ccccc1
[2]
  IC50: 41.1 µM (active)

## Cc1cc2ccccn2c1C(=O)c1ccc(NN)c([N+](=O)[O-])c1
[5]
  IC50: > 80 µM (inactive)

## COCCCNC(=O)COc1ccc(-c2nccc(-c3ccccn3)n2)cc1
[5]
  IC50: > 80 µM (inactive)

## CCC1CCc2sc(C(=O)O)cc2C1 (stereo not given)
[3]
  EC50: > 350 µM (not active)
[4]
  EC50: > 350 µM (not active)

## CN(C)S(=O)(=O)c1ccc(NC(=O)N2CCN(c3ccccc3)CC2)cc1
[5]
  IC50: > 80 µM (inactive)

## O=C1NC(=O)N(Cc2ccccc2Cl)C(=O)/C1=C/c1cccs1
[6]
  AC50: 29.7 µM (active)

## Cc1cc(O)nc2c(C)cc(S(=O)(=O)N3CCCCC3)cc12
[5]
  IC50: > 80 µM (inactive)

## C[C@@H]1O[C@@H](OC2C(O)C(OCCc3ccc(O)c(O)c3)OC(CO)C2OC(=O)/C=C/c2ccc(O)c(O)c2)[C@H](O)[C@H](O)[C@H]1O (stereo not given in full)
[7]
  IC50: 3.26 µM (active)

## O=C(CCCCl)NC1=NN(c2ccccc2)C(=O)C1
[7]
  IC50: 30.9 µM (active)

## CCN(CC)S(=O)(=O)c1ccc(C(=O)/C=C/c2ccc(-c3ccc([N+](=O)[O-])cc3)o2)cc1
[8]
  EC50: > 99 µM (inactive)
[9]
  EC50: > 99 µM (inactive)

## COc1ccc2c(C)cc3n[nH]c(=S)n3c2c1
[1]
  IC50: 20.6 µM (active)
[2]
  IC50: > 100 µM (inactive)

## COc1cccc(-c2cc(C(=O)Nc3cccc(O)c3)no2)c1
[10]
  AC50: 22.4 µM (inconclusive)
[11]
  AC50: 7.52 µM (active)
[12]
  AC50: inconclusive
[13]
  AC50: 8.73 µM (active)
[14]
  AC50: 42.3 µM (active)

## c1ccc(COc2ccc(OCCCN3CCCC3)cc2)cc1
[11]
  AC50: 0.751 µM (active)
[13]
  AC50: 1.19 µM (active)
[14]
  AC50: > 52 µM (inactive)

## CC1(C)O[C@@H]2[C@H](O1)[C@@H](COS(=O)(=O)O)O[C@H]2n1c(S)nc2c(O)nc(N)nc21
[1]
  IC50: 53.7 µM (active)
[2]
  IC50: 34.8 µM (active)

## COCCN1C(=O)/C(=C/c2c(OC)cc(OC)cc2OC)C(=O)N(c2ccccc2)C1=O
[15]
  EC50: 131 µM (active)
[16]
  EC50: > 300 µM (not active)
